The text below walks through data of ChEMBL document CHEMBL4325857, “Discovery and synthesis of tetrahydropyrimidinedione-4-carboxamides as endothelial lipase inhibitors” (Bioorg Med Chem Lett, 2018).

Molecules are shown by their SMILES.

For data set [1], the target named is T1, Endothelial lipase (Homo sapiens, UniProt Q9Y5X9).
T1 sequence (Q9Y5X9 whole entry): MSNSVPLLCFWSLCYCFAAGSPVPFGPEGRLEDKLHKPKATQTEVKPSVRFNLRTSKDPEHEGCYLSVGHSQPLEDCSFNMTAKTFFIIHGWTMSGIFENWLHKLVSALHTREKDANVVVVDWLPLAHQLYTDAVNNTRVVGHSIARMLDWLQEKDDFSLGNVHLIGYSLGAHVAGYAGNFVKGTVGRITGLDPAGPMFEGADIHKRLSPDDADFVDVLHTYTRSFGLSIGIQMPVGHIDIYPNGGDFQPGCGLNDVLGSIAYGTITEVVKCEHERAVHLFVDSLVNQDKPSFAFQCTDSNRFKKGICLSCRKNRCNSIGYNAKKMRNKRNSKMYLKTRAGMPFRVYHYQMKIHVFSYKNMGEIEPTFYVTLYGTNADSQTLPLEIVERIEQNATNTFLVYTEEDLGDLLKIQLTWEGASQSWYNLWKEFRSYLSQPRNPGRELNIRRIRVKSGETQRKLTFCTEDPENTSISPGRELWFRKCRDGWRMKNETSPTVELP
Kind of data set: Inhibition of recombinant human endothelial lipase expressed in African green monkey COS7 cells using HDL as substrate pretreated for 10 mins followed by substrate addition and measured after 30 mins by LC/MS/MS analysis.

In data set [2] the target is T1, Endothelial lipase. The data set can be described thus: Inhibition of endothelial lipase (unknown origin) using D31-POPC-HDL as substrate after 2 hrs in presence of human serum by LC/MS analysis.
Data set [3] is described as follows: Metabolic stability in mouse liver microsomes assessed as parent compound remaining after 10 mins. Type of data set: ADME, Microsome. The conditions noted are these: read-out: Stability.
Data set [4] in a line: Permeability of compound at pH 5.5 by PAMPA. Type of data set: ADME. The conditions noted are these: read-out: permeability. Background: PAMPA measures passive passage across an artificial lipid membrane.
Data set [5] in a line: Permeability of compound at pH 7.4 by PAMPA. Type of data set: ADME. To be noted: read-out: permeability.
The nature of data set [6]: AUC in mouse at 1 mg/kg, iv. Type of data set: ADME, organism-based. To be noted: in vivo.
Data set [7] in a line: Half life in mouse at 1 mg/kg, iv. Type of data set: ADME, organism-based. To be noted: in vivo.
Data set [8] can be described thus: Unbound plasma concentration in mouse at 1 mg/kg, iv. The data set is classed as ADME, organism-based.
The nature of data set [9]: AUC in mouse at 1 mg/kg, po. The data set is classed as ADME, organism-based. The conditions noted are these: in vivo.
Data set [10] is described as follows: Bioavailability in mouse at 1 mg/kg, […]. Type of data set: ADME, organism-based. The conditions noted are these: in vivo.
Data set [11] can be described thus: Oral bioavailability in mouse at 1 mg/kg. The data set is classed as ADME, organism-based. To be noted: in vivo.

With `Nc1c(C(=O)N[C@H]2CC[C@@H](c3ccccc3)CC2)[nH]c(=O)[nH]c1=O`, at Endothelial lipase [1], the IC50 – broadly, the concentration needed to halve the response being measured – is 0.091 µM.
Take `Nc1c(C(=O)N[C@@H]2CC[C@H](c3ccccc3)C2)[nH]c(=O)[nH]c1=O`: the IC50 on Endothelial lipase [1] was 0.175 µM; on Endothelial lipase [2], 231 µM.
As for `O=C(N[C@H]1CC[C@@H](c2ccccc2)CC1)c1[nH]c(=O)n(CCO)c(=O)c1O`, the IC50 on Endothelial lipase [1] was 0.08 µM; at Endothelial lipase [2] it was above 143 µM.
In the case of `Nc1c(C(=O)N[C@H]2CC[C@@H](c3ccccc3)CC2)n(-c2ccccc2)c(=O)[nH]c1=O`, the IC50 at Endothelial lipase [1] came to 2.35 µM.
With `CO[C@]1(c2ccc(F)cc2)CC[C@@H](NC(=O)c2[nH]c(=O)[nH]c(=O)c2N)CC1`, the IC50 on Endothelial lipase [1] came to 1.01 µM.
With `Nc1c(C(=O)N[C@@H]2CC[C@H](c3ccccc3)c3ccccc32)[nH]c(=O)[nH]c1=O`, the IC50 at Endothelial lipase [1] is 0.05 µM; on Endothelial lipase [2], 76 µM. Besides, in data set [3], the remaining at 10 min was 92%. For the same molecule, the Papp amounted to 289 nm/s in data set [4] and 322 nm/s in data set [5]. Also, the AUC (in general, concentration integrated over time) in data set [6] was 11 µM·h. In [7], the half-life (as a rule, the time in which the quantity being followed falls by half) is 1.4 h.
`CCN1CC(C(=O)N[C@H]2CC[C@@H](c3ccccc3)CC2)=C(O)C1=O`: the IC50 on Endothelial lipase [1] amounted to 0.082 µM.
With `O=C(N[C@H]1CC[C@@H](c2ccccc2)CC1)c1[nH]c(=O)[nH]c(=O)c1NC1CCCC1`, the IC50 is 0.156 µM at Endothelial lipase [1] and 436 µM on Endothelial lipase [2].
As to `CCN1CC(C(=O)NC(C)CCc2ccc(Cl)c(Cl)c2)=C(O)C1=O` (stereo not drawn), the IC50 on Endothelial lipase [2] is above 476 µM. Also, in data set [3], the remaining at 10 min was determined as 92%. The values for the Papp in [4] and in [5] were 508 nm/s and 35 nm/s, respectively. Also, in data set [8], the fraction unbound (as a rule, free concentration divided by total concentration) is 0.023. The AUC in data set [6] worked out at 300 µM·h.
`Nc1c(C(=O)N[C@@H]2CCc3cc(OCc4ccccc4)ccc32)[nH]c(=O)[nH]c1=O`: the IC50 at Endothelial lipase [1] worked out at 0.017 µM; at Endothelial lipase [2], 80 µM. Besides, the remaining at 10 min in data set [3] amounted to 85%. The Papp in data set [5] is 768 nm/s.
As to `CC(C)Cn1c(=O)[nH]c(C(=O)N[C@H]2CC[C@@H](c3ccccc3)CC2)c(O)c1=O`, the results for the IC50 at Endothelial lipase [1] and on Endothelial lipase [2] were 0.059 µM and 48 µM, respectively. Further, the remaining at 10 min in data set [3] turned out to be 100%.
As to `O=C(N[C@H]1CC[C@@H](c2ccccc2)CC1)c1[nH]c(=O)n(Cc2ccccc2)c(=O)c1O`, the IC50 at Endothelial lipase [1] was 0.117 µM; on Endothelial lipase [2] it was 32 µM. The Papp in data set [4] came to 277 nm/s; in data set [5], 158 nm/s.
Take `Nc1c(C(=O)N[C@H]2CC[C@@H](c3ccc(OCc4ccccc4)cc3)CC2)[nH]c(=O)[nH]c1=O`: the results for the IC50 at Endothelial lipase [1] and at Endothelial lipase [2] were 0.021 µM and 35 µM, respectively. Also, in [3], the remaining at 10 min came to 85%.
For `Nc1c(C(=O)N[C@H]2CC[C@@H](c3ccccc3)C2)[nH]c(=O)[nH]c1=O`, the IC50 at Endothelial lipase [1] was 0.218 µM; on Endothelial lipase [2] it was above 952 µM.
For the molecule `Nc1c(C(=O)N[C@@H]2CCCc3c(OCc4ccccc4)cccc32)[nH]c(=O)[nH]c1=O`, the values for the IC50 on Endothelial lipase [1] and at Endothelial lipase [2] were 0.049 µM and 81 µM, respectively. In addition, the remaining at 10 min in [3] was 79%. Also, the Papp in data set [4] worked out at 960 nm/s; in data set [5] it was 712 nm/s. In data set [8], the fraction unbound was determined as 0.015. Moreover, the values for the AUC in data set [6] and in data set [9] were 140 µM·h and 79 µM·h, respectively. This molecule also had a half-life in data set [7] of 6.7 h. Further, the bioavailability in [10] and in data set [11] was 55% each time.
Consider `O=C(N[C@H]1CC[C@@H](c2ccccc2)CC1)c1[nH]c(=O)[nH]c(=O)c1O`, for which the IC50 stood at 0.026 µM on Endothelial lipase [1] and 25 µM on Endothelial lipase [2]. In addition, the remaining at 10 min in [3] stood at 100%. In addition, the Papp in data set [4] came out at 427 nm/s; in data set [5], 12 nm/s. The fraction unbound in [8] came out at 0.15. In data set [6], this molecule displayed an AUC of 5.5 µM·h. The half-life in [7] is 1.1 h.
